US20250134895A1, “METHODS AND COMPOSITIONS FOR TREATING ALPHA-SYNUCLEIN-MEDIATED NEURODEGENERATION” (UNIVERSITY HEALTH NETWORK, priority 2021, published 2025)

Experiments:
[1] = system: full-length Gaussia princeps luciferase; experiment: Activity of full-length Gaussia luciferase alone in H4 cells; assay type: cell-based
Protocol: (§1) For controls in this assay, vehicle (i.e., DMSO), rapamycin, and bafilomycin A were used. Rapamycin, or sirolimus, is a small molecule that activates autophagy by inhibiting mTOR (mammalian target of rapamycin). […] To test this possibility, cells expressing α-synuclein were treated with each of the compounds and a cell permeable, resazurin-based assay was used to test for cell viability.
(§2) H4 neuroglioma cells (ATCC, HTB-148) were maintained in Dulbecco's Modified Eagle Medium plus high glucose, L-glutamine, and sodium pyruvate (ThermoFisher, 11995-065) with 10% heat-inactivated fetal bovine serum (ThermoFisher, 16140071) and 1% antibiotic-antimycotic cocktail (ThermoFisher, 15240062) at 37° C. and 5% CO2. DNA expression constructs encoding for full-length human α-synuclein fused to the N-terminal fragment of Gaussia princeps luciferase (syn-luc1), full-length human α-synuclein fused to the C-terminal fragment of Gaussia princeps luciferase (syn-luc2), and full-length Gaussia princeps luciferase were kindly provided by Dr. Pamela McLean, Mayo Clinic Jacksonville.^33 Cells were transiently co-transfected with syn-luc1 and syn-luc2 or transfected with luciferase alone using Superfect transfection reagent (Qiagen, 301305) according to the manufacturer's instructions. Twenty-four hours after transfection, cells were plated on a 96-well microplate at 60,000 cells per well. Twenty-four hours after plating, cells were treated with drugs or vehicle control. Following 24 hours of treatment, cells were washed 1 time with PBS and bioluminescence was measured using an automated CLARIOstar plate reader (Mandel, 430-0505). Cell permeable, native coelenterazine was used as the Gaussia luciferase substrate. Lyophilized coelenterazine (Nanolight, 303-500) was reconstituted in NanoFuel Solvent (Nanolight, 399-1), then diluted in PBS to 16.6 μg/mL, and dispensed per well to a final concentration of 20 μM). The bioluminescent signal generated by the luciferase enzyme was assessed at 470 nm over 5 seconds. Raw luminescence units were normalized to the DMSO vehicle control of each 96-well microplate. To assess cell viability, H4 neuroglioma cells were prepared and treated as described above and, 1 hour prior to viability analysis, cells were treated with PrestoBlue viability reagent (ThermoFisher, A13261) according to the manufacturer's instructions. Fluorescence was automatically measured using a CLARIOstar plate reader (Mandel, 430-0505) and then normalized to the fluorescence measure of the DMSO vehicle control.

α-synuclein oligomers [2] = target: T1, α-synuclein oligomers (Homo sapiens, UniProt P37840); experiment: Venus YFP protein-fragment complementation assay in rat primary cortical neurons; assay type: cell-based; conditions: 72 hours; for YFP fluorescence compared with vehicle control: 10 μM
α-synuclein oligomers [3] = target: T1, α-synuclein oligomers; experiment: Gaussia luciferase protein-fragment complementation cell assay of α-synuclein oligomers in H4 neuroglioma cells; assay type: cell-based; design: full-length human α-synuclein fused to the N-terminal fragment of Gaussia princeps luciferase (syn-luc1); full-length human α-synuclein fused to the C-terminal fragment of Gaussia princeps luciferase (syn-luc2); expressed in transfected cells; host or cells: H4 neuroglioma cells (ATCC, HTB-148), transient co-transfection; conditions: for α-syn oligomers as measured by luciferase activity / decrease in luciferase activity compared with vehicle alone: 1 μM or 10 μM; for α-syn oligomers as measured by luciferase activity: Example 9; for decrease in luciferase activity compared with vehicle alone: 24 hours of treatment
Protocol: as §1, §2
We used a bioluminescent protein-fragment complementation assay in which human H4 neuroglioma cells co-express human α-synuclein tagged with the N- or C-terminal half of Gaussia princeps luciferase (FIG. 12). Reconstitution of a complete and active luciferase molecule from the fragments occurs upon α-synuclein oligomerization, and so luminescence provides an indirect measure of α-synuclein oligomer levels. H4 neuroglioma cells were co-transfected with α-syn luciferase fragments, and constructs were plated into a 96-well plate and treated with either 1 μM or 10 μM of each of the 19 drug compounds.

H4 neuroglioma cells = conditions: for reduced cell survival: human, 24 h
Protocol: as §1, §2

[4] = system: transgenic A30P α-synuclein C. elegans; experiment: Coiler score and locomotion of C. elegans expressing A30P α-synuclein in dopaminergic neurons; assay type: in vivo, Caenorhabditis elegans; conditions: for reduction in coiling compared with vehicle alone (decrease): 100 μM of drug, 3 days on drug plates
Protocol: Using high-resolution, multi-worm tracking with custom image processing, methods were developed for semi-automated and blinded scoring of circularity for a population of simultaneously recorded animals (n=10 per recording). A coiler score was determined for the population tested by first calculating the circularity value for each animal in each frame of video and then calculating the proportion of circularity values >0.6. […] The coiler phenotype is an abnormal motor behaviour previously reported for several unc C. elegans strains with mutations affecting neuronal function.
Animals were synchronized by isolating eggs using alkaline hypochlorite treatment and hatching overnight. Larvae were plated onto NGM agar plates with OP50 and grown for 4 days before recording locomotion. For individual C. elegans recordings, a single adult animal was randomly picked, washed for 1 to 2 minutes in M9 buffer, and then transferred to a fresh NGM plate without food for imaging. Video images were acquired (2 frames per second) for up to 6 minutes using a sCMOS camera (pco.edge, PCO) mounted on a stereomicroscope (Olympus MVX10 MacroView) controlled using the μManager software.^55 A total of 40 individual animals were imaged for each strain. For C. elegans population recordings, ten adult animals were randomly removed using an eyelash pick, washed for 1 minute in M9 buffer, and then transferred to a fresh NGM plate without food, with a ring of copper sulfate solution (150 mM) around the area of recording (a chemorepellent to keep the animals in the recording frame). Exploratory locomotion was recorded using a CCD camera (GX1920, Allied Vision) which was attached to a dissecting stereomicroscope (Leica M165C, 1.0× PlanApo lens). A Labview program captured video (2 frames per second) at 1936×1456 resolution. Using ImageJ, the displacement, perimeter, and area of each animal was calculated, from which a circularity value was computed using the following formula: circularity=4π(A/P^2), where A is the area of the animal's body and P is the perimeter of the animal's body (both expressed in arbitrary pixel units). […] Using MATLAB (Mathworks), various behavioural metrics including the coiler score were calculated, which is the percentage of frames with a circularity value >0.6. Speed was automatically computed from the ImageJ based WrmTrk plugin as the distance travelled by each animal (in pixels) over the amount of time that it was tracked (in seconds).56 Average speed was determined by calculating the weighted average of each tracked animal's speed within a single population of animals. On the day of the recording for dopamine or raclopride treatment, adult animals were washed for 1 minute in M9 buffer, treated in a solution containing either drug for 1 minute, and then placed onto fresh NGM plates without food, with a copper sulfate solution ring around the area of recording. […] Drug plates were prepared by adding each drug to LB medium with OP50 before spreading onto fresh NGM plates. The solvent used to dissolve each drug was used as vehicle control for the drug treatment experiments (M9 buffer for dopamine, distilled water for raclopride, DMSO for all other drugs).
After 72 hours of drug treatment, animals were randomly picked, washed, and recorded. A total of ten worms were recorded per population, and twelve populations were recorded for each of the four treatment groups. Locomotion was recorded for each population over a total of 1800 frames over three minutes. The animal's movement speed, area, and perimeter were automatically analyzed as previously described. Coiler score was calculated automatically using a ratio of the animal's area to perimeter, where a higher coiler score would represent a greater degree of α-synuclein-induced dopaminergic neuron dysfunction in vivo.

control GFP C. elegans = experiment: Coiler score and locomotion of control GFP C. elegans; assay type: in vivo, Caenorhabditis elegans; conditions: 1 mM, animals not expressing α-synuclein
Protocol: Animals were synchronized by isolating eggs using alkaline hypochlorite treatment and hatching overnight. Larvae were plated onto NGM agar plates with OP50 and grown for 4 days before recording locomotion. For individual C. elegans recordings, a single adult animal was randomly picked, washed for 1 to 2 minutes in M9 buffer, and then transferred to a fresh NGM plate without food for imaging. Video images were acquired (2 frames per second) for up to 6 minutes using a sCMOS camera (pco.edge, PCO) mounted on a stereomicroscope (Olympus MVX10 MacroView) controlled using the μManager software.^55 A total of 40 individual animals were imaged for each strain. For C. elegans population recordings, ten adult animals were randomly removed using an eyelash pick, washed for 1 minute in M9 buffer, and then transferred to a fresh NGM plate without food, with a ring of copper sulfate solution (150 mM) around the area of recording (a chemorepellent to keep the animals in the recording frame). Exploratory locomotion was recorded using a CCD camera (GX1920, Allied Vision) which was attached to a dissecting stereomicroscope (Leica M165C, 1.0× PlanApo lens). […] Using ImageJ, the displacement, perimeter, and area of each animal was calculated, from which a circularity value was computed using the following formula: circularity=4π(A/P^2), where A is the area of the animal's body and P is the perimeter of the animal's body (both expressed in arbitrary pixel units). […] Using MATLAB (Mathworks), various behavioural metrics including the coiler score were calculated, which is the percentage of frames with a circularity value >0.6. Speed was automatically computed from the ImageJ based WrmTrk plugin as the distance travelled by each animal (in pixels) over the amount of time that it was tracked (in seconds).56 Average speed was determined by calculating the weighted average of each tracked animal's speed within a single population of animals. […]
C. elegans were grown and maintained as previously described (Examples 1-6). […] After 72 hours of drug treatment, animals were randomly picked, washed, and recorded. […]

SMILES: CCCC(=O)Nc1ccc(OCC(O)CNC(C)C)c(C(C)=O)c1 (centres unmarked) [Acebutolol]
- changes in the activity of full-length Gaussia luciferase alone ([1]; 10 μM, FIG. 14): No statistically significant changes
- YFP fluorescence compared with vehicle control (α-synuclein oligomers [2]): No significant differences
- α-syn oligomers as measured by luciferase activity (α-synuclein oligomers [3]): significant decrease

SMILES: CC(=O)Nc1ccc(O)cc1 [Acetaminophen]
- changes in viability (H4 neuroglioma cells): No statistically significant changes
- changes in the activity of full-length Gaussia luciferase alone ([1]; Example 5, FIG. 5c): No statistically significant changes
- reduction in coiling compared with vehicle alone (decrease) [4]: 32%
- decrease in luciferase activity compared with vehicle alone (α-synuclein oligomers [3]): 14%

SMILES: CO/C1=C\C(C)=C\[C@@H](C)[C@@H](O)[C@@H](C)C/C(C)=C/C=C/[C@H](OC)[C@@H]([C@@H](C)[C@@H](O)[C@H](C)[C@@]2(O)C[C@@H](O)[C@H](C)[C@@H](C(C)C)O2)OC1=O [Bafilomycin A1, bafilomycin A1]
- change in α-synuclein oligomer levels (active controls) (α-synuclein oligomers [3]; rapamycin 2 μM, bafilomycin A1 50 nM): increase

SMILES: CN(C)CCCOc1nn(Cc2ccccc2)c2ccccc12 [Benzydamine]
- α-syn oligomers as measured by luciferase activity (α-synuclein oligomers [3]): significant decrease

SMILES: Cn1c(=O)c2c(ncn2C)n(C)c1=O [Caffeine]
- changes in the activity of full-length Gaussia luciferase alone ([1]; Example 5, FIG. 5c): No statistically significant changes
- reduction in coiling compared with vehicle alone (decrease) [4]: 37%
- decrease in luciferase activity compared with vehicle alone (α-synuclein oligomers [3]): 16%

SMILES: Oc1c(I)cc(Cl)c2cccnc12 [Clioquinol]
- α-syn oligomers as measured by luciferase activity (α-synuclein oligomers [3]): significant decrease

SMILES: NCCc1ccc(O)c(O)c1 [Dopamine, dopamine]
- coiling with exogenous dopamine ([4]; increasing concentrations, 1 minute treatment): decreased with treatment in a dose-dependent manner

SMILES: COc1cc([C@@H]2c3cc4c(cc3[C@@H](O[C@@H]3O[C@@H]5CO[C@@H](C)O[C@H]5[C@H](O)[C@H]3O)[C@H]3COC(=O)[C@H]23)OCO4)cc(OC)c1O [Etoposide]
- reduced cell survival (H4 neuroglioma cells): > 15%
- decrease in luciferase activity compared with vehicle alone (α-synuclein oligomers [3]): 30%

SMILES: Nc1ccn([C@@H]2CS[C@H](CO)O2)c(=O)n1 [Lamivudine]
- changes in the activity of full-length Gaussia luciferase alone ([1]; 10 μM, FIG. 14): No statistically significant changes
- YFP fluorescence compared with vehicle control (α-synuclein oligomers [2]): No significant differences
- α-syn oligomers as measured by luciferase activity (α-synuclein oligomers [3]): significant decrease

SMILES: Sc1ncnc2nc[nH]c12 [Mercaptopurine]
- changes in viability (H4 neuroglioma cells): No statistically significant changes
- changes in the activity of full-length Gaussia luciferase alone ([1]; Example 5, FIG. 5c): No statistically significant changes
- effect on coiling / coiler score ([4]; 100 μM, 72 hr, vs DMSO vehicle): no effect
- decrease in luciferase activity compared with vehicle alone (α-synuclein oligomers [3]): 17%

SMILES: NC(=O)C[S+]([O-])C(c1ccccc1)c1ccccc1 (centres unmarked) [Modafinil]
- reduced cell viability (decrease) (H4 neuroglioma cells; 1-20 μM, Example 9): 32%
- concentration with significant loss in cell viability (H4 neuroglioma cells; drugs 1-20 μM, FIG. 13): < 5 µM
- α-syn oligomers as measured by luciferase activity (α-synuclein oligomers [3]): significant decrease

SMILES: CN1C(C(=O)Nc2ccccn2)=C(O)c2ccccc2S1(=O)=O [Piroxicam]
- reduced cell survival (H4 neuroglioma cells): > 15%
- decrease in luciferase activity compared with vehicle alone (α-synuclein oligomers [3]): 19%

SMILES: CCN1CCC[C@H]1CNC(=O)c1c(O)c(Cl)cc(Cl)c1OC [Raclopride, raclopride]
- coiling after D2 receptor blockade (control GFP C. elegans): recapitulated the coiling behaviour

SMILES: CO[C@H]1C[C@@H]2CC[C@@H](C)[C@@](O)(O2)C(=O)C(=O)N2CCCC[C@H]2C(=O)O[C@H]([C@H](C)C[C@@H]2CC[C@@H](O)[C@H](OC)C2)CC(=O)[C@H](C)/C=C(\C)[C@@H](O)[C@@H](OC)C(=O)[C@H](C)C[C@H](C)/C=C/C=C/C=C/1C [Rapamycin]
- changes in viability (H4 neuroglioma cells): No statistically significant changes
- reduction in coiling compared with vehicle alone (decrease) [4]: 30%
- decrease in fluorescence compared with vehicle alone (α-synuclein oligomers [2]; losartan 100 μM, rapamycin 50 nM, rifabutin 20 μM): 36%

SMILES: Cn1c(=O)c2[nH]cnc2n(C)c1=O [Theophylline]
- decrease in luciferase activity compared with vehicle alone (α-synuclein oligomers [3]): 8%

SMILES: CC[C@]1(O)C[C@H]2CN(CCc3c([nH]c4ccccc34)[C@@](C(=O)OC)(c3cc4c(cc3OC)N(C=O)[C@H]3[C@@](O)(C(=O)OC)[C@H](OC(C)=O)[C@]5(CC)C=CCN6CC[C@]43[C@@H]65)C2)C1 [Vincristine]
- reduced cell survival (H4 neuroglioma cells): > 15%
- decrease in luciferase activity compared with vehicle alone (α-synuclein oligomers [3]): 33%
